Measurements reported in ChEMBL document CHEMBL1781882, “Neuroprotective effects of furopyrazole derivative of benzylindazole analogs on C2 ceramide-induced apoptosis in cultured cortical neurons” (Bioorg Med Chem Lett, 2009).
The source made the active and inactive calls. The calls are words filed in the database; no cut-off is given here.

Legend:
[1] = Cytotoxicity against Sprague-Dawley rat cortical neurons at 10 uM for 24 hrs by MTT assay; details: cortical neurone
Cortical neurone [2] = test: Neuroprotective activity in Sprague-Dawley rat cortical neurons assessed as attenuation of C2 ceramide-induced apoptosis at 10 uM challenged with C2 ceramide for 24 hrs by Hoechst 33258 staining; format: functional
Cortical neurone [3] = test: Neuroprotective activity in Sprague-Dawley rat cortical neurons assessed as reduction in C2 ceramide-induced cell death treated for 2 hrs followed by challenged with C2 ceramide for 24 hrs by MTT assay; format: functional
[4] = Neuroprotective activity in Sprague-Dawley rat cortical neurons assessed as reduction in C2 ceramide-induced cell death measured as cell survival at 1 uM for 2 hrs followed by challenged with C2 ceramide for 24 hrs by MTT assay; format: functional, Cortical neurone
Cortical neurone [5] = test: Neuroprotective activity in Sprague-Dawley rat cortical neurons assessed as reduction in C2 ceramide-induced cell death at 30 uM for 2 hrs followed by challenged with C2 ceramide for 24 hrs by MTT assay; format: functional
[6] = Neuroprotective activity in Sprague-Dawley rat cortical neurons assessed as reduction in C2 ceramide-induced cell death measured as cell survival at 5 uM for 2 hrs followed by challenged with C2 ceramide for 24 hrs by MTT assay; format: functional, Cortical neurone
[7] = (§1) Neuroprotective activity in Sprague-Dawley rat cortical neurons assessed as reduction in C2 ceramide-induced cell death measured as cell survival at 10 uM for 2 hrs followed by challenged with C2 ceramide for 24 hrs by MTT assay in presence of U0126 ERK1/2 inhibitor (reference value: 100.2 +/- 1.7%); format: functional, Cortical neurone
[8] = Neuroprotective activity in Sprague-Dawley rat cortical neurons assessed as reduction in C2 ceramide-induced cell death measured as cell survival at 10 uM for 2 hrs followed by challenged with C2 ceramide for 24 hrs by MTT assay; format: functional, Cortical neurone
[9] = as §1, with “PD98059” for “U0126”; format: functional, Cortical neurone
[10] = Neuroprotective activity in Sprague-Dawley rat cortical neurons assessed as reduction in C2 ceramide-induced cell death measured as cell survival at 2.5 uM for 2 hrs followed by challenged with C2 ceramide for 24 hrs by MTT assay; format: functional, Cortical neurone

Structure (SMILES)	Activity [1]	Activity (Cortical neurone [2])	Activity (Cortical neurone [3])	Activity [4] [%]	Activity (Cortical neurone [5])	Activity [6] [%]	Activity [7] [%]	Activity [8] [%]	Activity [9] [%]	Activity [10] [%]
Cc1cc2c(o1)c(-c1ccc(CO)cc1)nn2-c1ccccc1	Non-toxic	Active	Active	75.6	inactive	90.1	71.9	100.2	70.3	81.5
Cc1cc2c(o1)c(-c1ccc(C(=O)O)cc1)nn2Cc1ccccc1			inactive							
Cc1cc2c(o1)c(-c1ccc(C(=O)O)cc1)nn2-c1ccccc1			inactive							
